The experiment deals with T1, human ALK5 (Homo sapiens, UniProt P36897).
T1 sequence (P36897 162-503): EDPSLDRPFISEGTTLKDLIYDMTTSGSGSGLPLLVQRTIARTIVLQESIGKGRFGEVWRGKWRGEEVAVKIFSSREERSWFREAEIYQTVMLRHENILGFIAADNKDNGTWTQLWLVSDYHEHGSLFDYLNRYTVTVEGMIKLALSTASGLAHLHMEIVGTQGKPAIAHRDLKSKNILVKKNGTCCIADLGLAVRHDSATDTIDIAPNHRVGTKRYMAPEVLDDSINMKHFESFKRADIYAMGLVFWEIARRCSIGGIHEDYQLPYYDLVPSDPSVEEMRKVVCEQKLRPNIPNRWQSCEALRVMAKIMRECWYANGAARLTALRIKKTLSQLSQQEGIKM
The experiment is described as follows: ALK5 Enzyme Assay 2 (fluorescence polarisation probe displacement). Details: 6His tagged human ALK5 (residues162-503) was grown and purified from insect cells; 6His; made in house; host or cells: insect cells. Conditions: read-out: EAA2: activity (μM) using Enzyme Assay 2. Format: binding. The procedure: The ability of a compound to bind and inhibit ALK5 can be measured by its capacity to displace a probe molecule from recombinant ALK5 in an in vitro assay. Provided the probe molecule is derivatised with a fluorescent probe or is fluorescent itself, the binding affinity can be measured using Fluorescence Polarisation (FP). […] Assay measurements were performed in 50 mM HEPES pH7.4, 10 mM MgCl2, 1 mM DTT, 0.01% CHAPS in a final assay volume of 12 μl. Briefly 6 μl of ALK5 protein, final concentration of 3 μg/mL, was added to each well of a 384 well assay plate containing 12 nL of each concentration of test compound dissolved in DMSO. 6 μL of a solution containing an ALK5 FP probe ((2Z)-3-(6-{4-[2-({4-[(6-chloro[1,3]dioxolo[4,5-b]pyridin-7-yl)amino]-5-(1-methylethoxy)quinazolin-7-yl}oxy)ethyl]piperazin-1-yl}-6-oxohexyl)-2-[(2E,4E)-5-(3-ethyl-1,1-dimethyl-6,8-disulfo-1H-benzo[e]indolium-2-yl)penta-2,4-dien-1-ylidene]-1,1-dimethyl-6-sulfo-2,3-dihydro-1H-benzo[e]indole-8-sulfonate), final concentration 50 nM, and ATP, final concentration 1 μM.
Background: Polarisation of emitted light reports the rotation of a fluorescent probe.

The source of these data is US20090048269A1 (AstraZeneca AB, priority 2007, published 2009).

As for `Cc1ccc(Oc2ccnc(Nc3ccc(S(=O)(=O)NCCN4CCOCC4)cc3)c2)c(C)n1` [Example 131, 4-[4-(2,6-Dimethylpyridin-3-yloxy)pyridin-2-ylamino]-N-(2-morpholinoethyl)benzenesulfonamide], the IC50 was found to be 0.256 µM.

For the compound `Cc1cc(Oc2ccnc(Nc3ccc(C(=O)NCCNC(=O)OC(C)(C)C)cc3)c2)c(-c2ccccn2)nc1C` [Example 198, tert-Butyl N-{2-[(4-{[4-(5,6-dimethyl-2-pyridin-2-ylpyridin-3-yl)oxypyridin-2-yl]amino}benzoyl)amino]ethyl}carbamate], the IC50 was 0.0147 µM.

`Cc1ccc(Oc2ccnc(Nc3ccc(S(=O)(=O)NCCN4CCN(C)CC4)cc3)c2)c(C)n1` [Example 133, 4-{[4-(2,6-Dimethylpyridin-3-yl)oxypyridin-2-yl]amino}-N-[2-(4-methylpiperazin-1-yl)ethyl]benzenesulfonamide]: the IC50 stood at 0.0932 µM.

For the compound `Cc1ccc(Oc2ccnc(Nc3cccc(C(=O)N4CCC4)c3)c2)c(C)n1` [Example 61, Azetidin-1-yl-(3-{[4-(2,6-dimethylpyridin-3-yl)oxypyridin-2-yl]-amino}phenyl)methanone], the IC50 was found to be 0.0227 µM.

Consider `Cc1ccc(Oc2ccnc(Nc3ccc(CC#N)cc3)c2)c(-c2ccccc2)n1` [Example 148, 2-(4-{[4-(6-Methyl-2-phenylpyridin-3-yl)oxypyridin-2-yl]-amino}phenyl)acetonitrile], for which the IC50 stood at 0.0339 µM.

Regarding `Cc1ccc(Oc2ccnc(Nc3ccc(CC#N)cc3)c2)c(-c2ccccn2)n1` [Example 144, 2-(4-{[4-(6-Methyl-2-pyridin-2-ylpyridin-3-yl)oxypyridin-2-yl]-amino}phenyl)acetonitrile], the IC50 is 0.0276 µM.

Consider `Cc1ccc(Oc2ccnc(Nc3cccc(CN4CCN(C(=O)NC5CCCCC5)CC4)c3)c2)c(C)n1` [Example 178, N-Cyclohexyl-4-{3-[4-(2,6-dimethylpyridin-3-yloxy)pyridin-2-ylamino]benzyl}piperazine-1-carboxamide], for which the IC50 was 0.0237 µM.

As for `CNC(=O)CN1CCN(Cc2cccc(Nc3cc(Oc4ccc(C)nc4C)ccn3)c2)CC1` [Example 191], the IC50 is 0.0213 µM.

As to `Cc1ccc(Oc2ccnc(Nc3cccc(CN4CCN(C(=O)Nc5ccc(F)c(Cl)c5)CC4)c3)c2)c(C)n1` [Example 180, N-(3-Chloro-4-fluorophenyl)-4-[(3-{[4-(2,6-dimethylpyridin-3-yl)oxypyridin-2-yl]amino}phenyl)methyl]piperazine-1-carboxamide], the IC50 came out at 0.0896 µM.

Regarding `Cc1cc(Oc2ccnc(Nc3ccc(OCC(O)CNC(C)C)cc3)c2)c(-c2ccccn2)nc1C` (stereo not shown) [Example 75, 1-(4-{[4-(5,6-Dimethyl-2-pyridin-2-ylpyridin-3-yl)oxypyridin-2-yl]-amino}phenoxy)-3-(propan-2-ylamino)propan-2-ol], the IC50 was 0.0136 µM.

`COc1ccc(-c2nc(C)ccc2Oc2ccnc(Nc3cc(OC)c(OC)c(OC)c3)c2)cc1` [Example 168, 4-[2-(4-Methoxyphenyl)-6-methylpyridin-3-yl-oxy]-N-(3,4,5-trimethoxyphenyl)pyridin-2-amine]: the IC50 turned out to be 0.0228 µM.

As for `Cc1ccc(Oc2ccnc(Nc3ccc(C(=O)NCCNS(=O)(=O)N(C)C)cc3)c2)c(C)n1` [Example 142, 4-{[4-(2,6-Dimethylpyridin-3-yl)oxypyridin-2-yl]amino}-N-[2-(dimethylsulfamoylamino)ethyl]benzamide], the IC50 turned out to be 0.0506 µM.

As for `Cc1ccc(Oc2ccnc(Nc3cccc(C(=O)N4CCC(S(C)(=O)=O)C4)c3)c2)c(C)n1` (stereo not shown) [Example 66, (3-{[4-(2,6-Dimethylpyridin-3-yl)oxypyridin-2-yl]amino}phenyl)-(3-methylsulfonylpyrrolidin-1-yl)methanone], the IC50 was found to be 0.0185 µM.

For the compound `Cc1ccc(Oc2ccnc(Nc3ccc(C(N)=O)cc3)c2)c(C)n1` [Example 92, 4-{[4-(2,6-Dimethylpyridin-3-yl)oxypyridin-2-yl]amino}benzamide], the IC50 was found to be 0.0694 µM.

As for `CC(=O)N(C)c1ccc(Nc2cc(Oc3cc(C)c(C)nc3-c3ccccn3)ccn2)cc1` [Example 83, N-(4-{[4-(5,6-Dimethyl-2-pyridin-2-ylpyridin-3-yl)oxypyridin-2-yl]-amino}phenyl)-N-methylacetamide], the IC50 was found to be 0.0259 µM.

`Cc1ccc(Oc2ccnc(Nc3ccc(C(=O)NCCN4CCC(F)(F)CC4)cc3)c2)c(C)n1` [Example 219, N-[2-(4,4-Difluoropiperidin-1-yl)ethyl]-4-{[4-(2,6-dimethyl-pyridin-3-yl)oxypyridin-2-yl]amino}benzamide]: the IC50 was found to be 0.108 µM.

`CCN(CC)S(=O)(=O)c1ccc(Nc2cc(Oc3ccc(C)nc3C)ccn2)cc1` [Example 116, 4-{[4-(2,6-Dimethylpyridin-3-yl)oxypyridin-2-yl]amino}-N,N-diethylbenzenesulfonamide]: the IC50 was found to be 1.42 µM.

Regarding `Cc1ccc(Oc2ccnc(Nc3cccc(CN4CCN(CC(=O)NC5CC5)CC4)c3)c2)c(C)n1` [Example 188, N-cyclopropyl-2-{4-[(3-{[4-(2,6-dimethylpyridin-3-yl)oxypyridin-2-yl]amino}phenyl)methyl]piperazin-1-yl}acetamide], the IC50 was 0.00691 µM.

With `Cc1cc(Oc2ccnc(Nc3cccc(C(=O)N4CCC4)c3)c2)c(-c2ccccn2)nc1C` [Example 98, Azetidin-1-yl-(3-{[4-(5,6-dimethyl-2-pyridin-2-ylpyridin-3-yl)-oxypyridin-2-yl]amino}phenyl)methanone], the IC50 was 0.0513 µM.

With `CC(=O)Nc1ccc(Nc2cc(Oc3ccc(C)nc3C)ccn2)cc1` [Example 123, N-(4-{[4-(2,6-Dimethylpyridin-3-yl)oxypyridin-2-yl]amino}-phenyl)acetamide], the IC50 turned out to be 0.0324 µM.

Take `CCn1nccc1Nc1cc(Oc2ccc(C)nc2C)ccn1` [Example 88, 4-[(2,6-Dimethylpyridin-3-yl)oxy]-N-(1-ethyl-1H-pyrazol-5-yl)-pyridin-2-amine]: the IC50 came out at 0.205 µM.

For `Cc1ccc(Oc2ccnc(Nc3ccc(C(N)=O)cc3)c2)c(-c2ccccc2)n1` [Example 151, 4-{[4-(6-Methyl-2-phenylpyridin-3-yl)oxypyridin-2-yl]amino}-benzamide], the IC50 was 0.0137 µM.

Take `Cc1ccc(Oc2ccnc(Nc3cccc(CN4CCN(C(=O)C5CCOCC5)CC4)c3)c2)c(C)n1` [Example 186, {4-[(3-{[4-(2,6-Dimethylpyridin-3-yl)oxypyridin-2-yl]amino}-phenyl)methyl]piperazin-1-yl}-(oxan-4-yl)methanone]: the IC50 is 0.0238 µM.

On to `Cc1cc(Oc2ccnc(Nc3cccc(S(N)(=O)=O)c3)c2)c(-c2ccccn2)nc1C` [Example 104, 3-{[4-(5,6-Dimethyl-2-pyridin-2-ylpyridin-3-yl)oxypyridin-2-yl]-amino}benzenesulfonamide], for which the IC50 worked out at 0.0121 µM.

Take `Cc1ccc(Oc2ccnc(Nc3ccc(C#N)cc3)c2)c(C)n1` [Example 89, 4-{[4-(2,6-Dimethylpyridin-3-yl)oxypyridin-2-yl]amino}-benzonitrile]: the IC50 amounted to 0.346 µM.

For `COc1cc(Nc2cc(Oc3cccnc3-c3ccccc3C(N)=O)ccn2)cc(OC)c1OC` [Example 221, 2-(3-{2-[(3,4,5-Trimethoxyphenyl)amino]pyridin-4-yl}oxypyridin-2-yl)benzamide], the IC50 stood at 3.02 µM.

Regarding `Cc1ccc(Oc2ccnc(Nc3ccc(S(N)(=O)=O)cc3)c2)c(-c2ccccc2)n1` [Example 149, 4-{[4-(6-Methyl-2-phenylpyridin-3-yl)oxypyridin-2-yl]amino}-benzenesulfonamide], the IC50 stood at 0.014 µM.

Turning to `Cc1cc(Oc2ccnc(Nc3cc(NS(C)(=O)=O)cc(C(N)=O)c3)c2)c(-c2ccccn2)nc1C` [Example 84, 3-{[4-(5,6-Dimethyl-2-pyridin-2-ylpyridin-3-yl)oxypyridin-2-yl]-amino}-5-methanesulfonamidobenzamide], the IC50 stood at 0.016 µM.

In the case of `Cc1cc(Oc2ccnc(Nc3cccc(C(=O)NCc4ccncc4)c3)c2)c(-c2ccccn2)nc1C` [Example 100, 3-{[4-(5,6-Dimethyl-2-pyridin-2-ylpyridin-3-yl)oxypyridin-2-yl]-amino}-N-(pyridin-4-ylmethyl)benzamide], the IC50 was 0.00576 µM.

Take `Cc1ccc(Oc2ccnc(Nc3cccc(C(=O)N4CCN(C)CC4)c3)c2)c(C)n1` [Example 71, [3-{[4-(2,6-Dimethylpyridin-3-yl)oxypyridin-2-yl]amino}phenyl]-(4-methylpiperazin-1-yl)methanone]: the IC50 came to 0.096 µM.

Regarding `Cc1ccc(Oc2ccnc(Nc3cccc(S(=O)(=O)Nc4ccccc4)c3)c2)c(C)n1` [Example 111, 3-{[4-(2,6-Dimethylpyridin-3-yl)oxypyridin-2-yl]amino}-N-phenylbenzenesulfonamide], the IC50 worked out at 0.621 µM.
